# In US20200308192A1, “NOVEL THIAZOLO[5,4-D]PYRIMIDINE DERIVATIVES AS INVERSE AGONISTS OF A2A ADENOSINE RECEPTORS” (Universita degli Studi di Ferrara, priority 2016, published 2020):
# Read-outs that look alike come from different tables or passages of the source.
# Experiments:
# [1] = system: breast cancer cells MRMT-1; assay: Cell proliferation assay (DELFIA BrdU); type: cell-based; settings: 48 hours; for Effect on CGS 21680-induced proliferation of cancer cells: MRMT-1, compound 100 nM pre-treatment, CGS 21680 100 nM
# Description: For the experiments of cellular proliferation, the DELFIA® kit was used and a multimode plate reader Ensight® from PerkinElmer. The DELFIA® (dissociation-enhanced lanthanide fluorescence immunoassay) assay is based on Time-Resolved Fluorescence (TRF) and on the incorporation of the 5-bromo-2-deoxyuridine (BrdU) in the DNA filaments recently synthesised by the proliferating cells seeded on microplates. The incorporated BrdU is detected by using a monoclonal antibody conjugated with europium, a long-lived chelated lanthanide, and the fluorescence measured is proportional to the synthesis of DNA in the cells population present in each well. The MRMT-1 cells, breast cancer cells, were pre-treated with some of the antagonists under evaluation at the concentration of 100 nM (compounds 1, 5, 6, 7, 10 of the present invention) for 30 minutes, then stimulated with CGS 21680 100 nM and after 30 minutes the solution of BrdU (10 μl/well) was added. At the end of the incubation period of 48 hours 100 μl/well of Anti-BrdU-Eu (0.5 μg/ml) were added and the cells were incubated for 120 minutes at room temperature. After 4 washings, 200 μl of DELFIA® stimulator were added at room temperature for 15 minutes and the Eu-fluorescence was detected by means of the Ensight® reader from Perkin Elmer (Perkin Elmer, Milan, Italy).
# [2] = molecular target: T1, human adenosine A2A receptor (Homo sapiens, UniProt P29274); assay: Competition binding, [3H]-ZM 241385, hA2A CHO membranes
# T1 sequence (P29274 whole entry): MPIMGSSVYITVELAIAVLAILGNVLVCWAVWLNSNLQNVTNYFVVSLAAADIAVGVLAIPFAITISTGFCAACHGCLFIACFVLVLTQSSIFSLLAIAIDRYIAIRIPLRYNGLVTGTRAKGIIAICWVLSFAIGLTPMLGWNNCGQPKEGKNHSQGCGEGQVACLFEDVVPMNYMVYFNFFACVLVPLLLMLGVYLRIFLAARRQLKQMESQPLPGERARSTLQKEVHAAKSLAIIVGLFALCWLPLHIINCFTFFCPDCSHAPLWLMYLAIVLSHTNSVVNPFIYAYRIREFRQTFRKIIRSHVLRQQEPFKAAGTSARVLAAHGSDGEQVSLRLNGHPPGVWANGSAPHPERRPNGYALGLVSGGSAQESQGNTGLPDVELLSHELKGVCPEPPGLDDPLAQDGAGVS
# Female CD1 mice [3] = assay: Writhing test (acetic acid-induced abdominal constrictions); type: in vivo; settings: for ED50: Mus musculus, ip, 15 minutes before acetic acid; for Dose-response curve, Writhing Test: P<0.001, one-way ANOVA
# Method: (§1) Female CD1 mice (22-24 g) were obtained from Charles River (Milano, Italia). The animals were kept under standard environmental temperature conditions (22±2° C.) and under moisture-controlled conditions with 12 hours light/dark cycle and food and water ad libitum. The animals were acclimated to the laboratory settings for at least 1 hour before testing and were used only once throughout the experiments. All the procedures used in the present study were carried out in accordance with the European Communities Council Directives (86/609/EEC) and the National Laws and Policies (D.L.116/92) after authorization from the Italian Ministry for Health (4/2014-B). In addition, the experimental procedures were in agreement with the current guidelines for the care of laboratory animals and the ethical guidelines for investigations of experimental pain in conscious animals (Couto M. Methods Mol Biol 2011; 770:579-599).
# The acetic acid-induced writhing response was performed after intraperitoneal injection of 10 ml/Kg of 0.6% acetic acid solution. The response to the abdominal constrictions induced by acetic acid was evaluated after the intraperitoneal injection of 10 ml/kg of a 0.6% solution of acetic acid. The compounds under evaluation were dissolved in DMSO and then diluted in a saline solution. The carrier consists of saline solution and 5% of DMSO. A writhe is indicated by stretching of the abdomen followed by the extension of the hind limbs. The animals (8 mice per group) were placed singly in a glass cylinder and the number of writhing episodes of abdominal contractions was counted in a 30 minutes period. The compounds were administered intraperitoneally 15 minutes before injection of acetic acid solution.
# (§2) The statistical analysis of the data was performed using ANOVA followed by Dunnett's test. […] KH and KL were obtained by using a two sites binding model and Graph PAD Prism (San Diego, Calif., USA). The values of IC50 obtained in the cAMP assays were calculated by non-linear regression analysis using the equation for a sigmoid concentration-response curve. All data are expressed as the mean±SEM of four independent experiments each performed in duplicate for in vitro assays and n=8-10 mice/group for in vivo assays.
# [4] = molecular target: T2, human adenosine A1 receptor (Homo sapiens, UniProt P30542); assay: Competition binding, [3H]-DPCPX, hA1 CHO membranes; settings: read-out: Receptor hA1 Ki, mean ± SEM
# T2 sequence (P30542 1-326): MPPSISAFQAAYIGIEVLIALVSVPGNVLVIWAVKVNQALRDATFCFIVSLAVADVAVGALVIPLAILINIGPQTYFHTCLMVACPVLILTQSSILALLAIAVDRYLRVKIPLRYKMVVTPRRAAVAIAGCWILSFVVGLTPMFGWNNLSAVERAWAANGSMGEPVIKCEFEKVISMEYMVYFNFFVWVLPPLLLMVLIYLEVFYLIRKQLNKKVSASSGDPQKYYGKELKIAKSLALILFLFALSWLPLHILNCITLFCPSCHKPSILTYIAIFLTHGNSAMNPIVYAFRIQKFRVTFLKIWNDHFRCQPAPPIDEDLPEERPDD
# Female CD1 mice [5] = assay: Warm-water tail immersion test; type: in vivo; settings: intraperitoneal
# Method: as §1
# The warm-water tail immersion assay was performed using a water thermostated bath at a temperature maintained at 52° C. The compounds under evaluation were dissolved in DMSO and then diluted in saline solution. The carrier consists of saline solution and 5% of DMSO. Before intraperitoneally injecting the compound, the natural time of response of the mice was determined and the distal part of the tail was then immersed in the thermostated bath. The latency in responding to the heat stimulus with a vigorous flexion of the tail was measured by means of a manual stopwatch. A 20 seconds maximum cut-off time was imposed to prevent tissue damage. The latency of the tail withdrawal was then tested 15 minutes after injection of the compound.
# as §2
# [6] = molecular target: T3, human adenosine A2B receptor (Homo sapiens, UniProt P29275); assay: cAMP assay, inhibition of NECA-stimulated cAMP levels in hA2B CHO cells; settings: read-out: Receptor hA2B IC50; cAMP stimulated by NECA (100 nM); mean ± SEM
# T3 sequence (P29275 1-332): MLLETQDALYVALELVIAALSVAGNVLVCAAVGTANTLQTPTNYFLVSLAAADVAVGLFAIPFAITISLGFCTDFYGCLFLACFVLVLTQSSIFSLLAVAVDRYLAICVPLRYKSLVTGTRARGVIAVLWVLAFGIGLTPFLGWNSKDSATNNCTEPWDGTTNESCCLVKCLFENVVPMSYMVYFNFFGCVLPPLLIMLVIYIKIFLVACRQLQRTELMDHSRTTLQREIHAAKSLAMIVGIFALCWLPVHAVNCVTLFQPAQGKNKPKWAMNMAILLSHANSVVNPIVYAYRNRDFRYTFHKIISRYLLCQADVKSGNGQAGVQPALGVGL
# [7] = molecular target: T4, human adenosine A3 receptor (Homo sapiens, UniProt P0DMS8); assay: Competition binding, [125I]-ABMECA, hA3 CHO membranes; settings: mean ± SEM
# T4 construct: expressed in transfected cells; host or cells: CHO cells (membrane preparation)
# T4 sequence (P0DMS8 1-318): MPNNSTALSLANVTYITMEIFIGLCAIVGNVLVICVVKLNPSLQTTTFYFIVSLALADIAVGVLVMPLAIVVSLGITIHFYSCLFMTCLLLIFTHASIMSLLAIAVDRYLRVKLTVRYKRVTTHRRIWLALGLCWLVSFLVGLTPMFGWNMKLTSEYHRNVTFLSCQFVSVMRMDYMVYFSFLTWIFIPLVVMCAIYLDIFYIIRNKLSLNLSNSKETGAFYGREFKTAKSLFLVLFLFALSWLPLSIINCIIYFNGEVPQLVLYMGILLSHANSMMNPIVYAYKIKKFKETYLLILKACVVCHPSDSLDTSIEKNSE
# [8] = molecular target: T1, human adenosine A2A receptor; assay: cAMP assay in hA2A CHO cells, basal or with CGS 21680; type: cell-based; parameters: expressed in transfected cells; host or cells: CHO cells; settings: for IC50: mean ± SEM
# Method: For the membranes preparation the culture medium was removed, and the cells were washed with a saline phosphate-buffered solution collected with hypotonic buffer (5 mM Tris HCl, 1 mM EDTA, pH 7.4).
# CHO cells transfected with the adenosine receptors were washed with a phosphate-buffered saline solution, detached with trypsin and centrifuged for 10 minutes at 200 g. […] The reaction was terminated by addition of cold 6% trichloroacetic acid (TCA). The TCA suspension was centrifuged at 2000 g for 10 minutes at 4° C. and the supernatant was extracted four times with diethyl ether with water. The final aqueous solution was tested for the cAMP levels by a competition protein binding assay with a cAMP-binding protein. The standard samples of cAMP (0-10 pmoli) were added to each test tube containing the incubation buffer (trizma base 0.1 M, aminophylline 8.0 mM, 2 mercaptoethanol 6.0 mM, pH 7.4) and [^3H]-cAMP. The binding protein previously prepared from beef adrenals, was added to the samples previously incubated at 4° C. for 150 minutes, and after the addition of charcoal were centrifuged at 2000 g for 10 min.
# as §2
# [9] = CGS 21680 (10 nM), read-out: IC50 cAMP, in presence of CGS 21680
# [10] = CGS 21680 (10 nM), read-out: Emax cAMP, in presence of CGS 21680
# [11] = basal cAMP, read-out: IC50 cAMP, in absence of CGS 21680
# [12] = efficacy versus basal cAMP production, read-out: Emax cAMP, in absence of CGS 21680
SMILES,"Effect on proliferation of cancer cells ([1]; MRMT-1, CGS 21680 100 nM)",Ki [2],ED50 (Female CD1 mice [3]; intraperitoneal),"Dose-response curve, Writhing Test (Female CD1 mice [3])","ED50 times lower than ZM 241385, Writhing Test (Female CD1 mice [3]; intraperitoneal)","ED50 times lower than morphine, Writhing Test (Female CD1 mice [3]; intraperitoneal)",Ki [4],"ED50 (Female CD1 mice [5]; Mus musculus, ip, 0.25 h, 52° C., 15 minutes after injection)","Anti-nociceptive activity, tail immersion test (Female CD1 mice [5])","Minimum effective dose, tail immersion test (Female CD1 mice [5])",IC50 [6],Ki [7],"Anti-nociceptive activity, Writhing Test (Female CD1 mice [3]; intraperitoneal)",Effect on CGS 21680-induced proliferation of cancer cells [1],"IC50 [8, 9]","Emax [8, 10]","IC50 [8, 11]","Emax [8, 12]"
"CCNC(=O)[C@H]1O[C@@H](n2cnc3c(N)nc(NCCc4ccc(CCC(=O)O)cc4)nc32)[C@H](O)[C@@H]1O [CGS 21680, reference compound]",able to increase the proliferation of the cancer cells,–,–,–,–,–,–,–,–,–,–,–,–,–,–,–,–,–
"COc1ccccc1CNc1nc(N)c2nc(-c3ccco3)sc2n1 [Compound 1, 2-(furan-2-yl)-N^5-(2-methoxybenzyl)[1,3]thiazolo[5,4-d]pyrimidin-5,7-diamine]",–,6.45 ± 0.57 nM,0.0328 ± 0.0021 mg/kg,dose-dependent effect,approximately 42 times,3.75 times,3.54 ± 0.32 nM,0.134 ± 0.011 mg/kg,highest analgesic activity,0.01 mg/kg,313 ± 29 nM,36 ± 3 nM,–,–,–,–,–,–
"COc1cccc(CNc2nc(N)c3nc(-c4ccco4)sc3n2)c1 [Compound 3, 2-(furan-2-yl)-N^5-(3-methoxybenzyl)[1,3]thiazolo[5,4-d]pyrimidin-5,7-diamine]",–,26 ± 2 nM,–,dose-dependent effect,–,–,8.16 ± 0.72 nM,–,–,–,452 ± 42 nM,92 ± 8 nM,potency similar to morphine,–,–,–,–,–
"Nc1nc(NCc2ccco2)nc2sc(-c3ccco3)nc12 [Compound 5, 2-(furan-2-yl)-N^5-(furan-2-ylmethyl)[1,3]thiazolo[5,4-d]pyrimidin-5,7-diamine]",–,1.73 ± 0.15 nM,–,–,–,–,38 ± 4 nM,–,–,–,82 ± 9 nM,4.72 ± 0.38 nM,–,able to reduce the proliferation of cancer cells,0.04 ± 0.004 nM,133 ± 13%,0.0016 ± 0.0002 nM,64%
"Nc1nc(NCc2cccs2)nc2sc(-c3ccco3)nc12 [Compound 6, 2-(furan-2-yl)-N^5-(thiophen-2-ylmethyl)[1,3]thiazolo[5,4-d]pyrimidin-5,7-diamine]",–,3.82 ± 0.31 nM,–,–,–,–,12.5 ± 1.1 nM,–,–,–,75 ± 8 nM,6.43 ± 8 nM,–,able to reduce the proliferation of cancer cells,0.036 ± 0.003 nM,132 ± 12%,0.0017 ± 0.0002 nM,61%
"Nc1nc(NCc2cccnc2)nc2sc(-c3ccco3)nc12 [Compound 7, 2-(furan-2-yl)-N^5-(pyridin-3-ylmethyl)[1,3]thiazolo[5,4-d]pyrimidin-5,7-diamine]",–,0.68 ± 0.05 nM,–,–,–,–,7.12 ± 0.65 nM,–,–,–,109 ± 11 nM,18.2 ± 1.7 nM,–,able to reduce the proliferation of cancer cells,0.059 ± 0.006 nM,126 ± 12%,0.011 ± 0.001 nM,61%
"Nc1nc(NCCc2cccs2)nc2sc(-c3ccco3)nc12 [Compound 10, 2-(furan-2-yl)-N^5-(2-(thiophen-2-yl)ethyl)[1,3]thiazolo[5,4-d]pyrimidin-5,7-diamine]",–,18 ± 2 nM,–,–,–,–,4.92 ± 0.37 nM,–,–,–,112 ± 11 nM,65 ± 6 nM,–,able to reduce the proliferation of cancer cells,0.045 ± 0.004 nM,138 ± 13%,0.0064 ± 0.0005 nM,62%
"Nc1nc(NCCc2ccc(O)cc2)nc2nc(-c3ccco3)nn12 [ZM 241385, reference compound]",–,–,1.37 ± 0.108 mg/kg,dose-dependent effect,–,–,–,–,no effect up to 10 mg/kg,–,–,683 ± 64 nM,–,–,–,–,–,–
"CN1CC[C@]23c4c5ccc(O)c4O[C@H]2[C@@H](O)C=C[C@H]3[C@H]1C5 [morphine, reference compound]",–,–,0.123 ± 0.01 mg/kg,dose-dependent effect,–,–,–,–,–,–,–,–,–,–,–,–,–,–
